According to patent US20240166652A1, “MODULATORS OF THE INTEGRATED STRESS PATHWAY” (Calico Life Sciences LLC, priority 2017, published 2024):
pEC50: −log10 of the molar value.

Test system: ATF4 luciferase reporter in HEK293T cells
Assay: ATF4-Luc assay (ATF4 luciferase reporter, tunicamycin-treated HEK293T cells)
Assay type: cell-based, human
Conditions: Homo sapiens, HEK-293T; HEK293T cells carrying the ATF4 luciferase reporter, 1 μg/mL tunicamycin, 7 hours

Row | SMILES | pEC50
1 | O=C(COc1ccc(F)c(F)c1)NC12CCC(NC(=O)COc3ccc(F)c(F)c3)(CC1)[C@@H](O)C2 [Compound 615, N,N′-[(2S)-2-hydroxybicyclo[2.2.2]octane-1,4-diyl]bis[2-(3,4-difluorophenoxy)acetamide]] | > 8.00
2 | O=C(COc1ccc(Cl)c(F)c1)NC12CCC(NC(=O)COc3ccc(Cl)c(F)c3)(CC1)C(Br)C2=O (centres unmarked) [Compound 572, N,N′-(2-bromo-3-oxobicyclo[2.2.2]octane-1,4-diyl)bis[2-(4-chloro-3-fluorophenoxy)acetamide]] | 7.30 to 8.00
3 | O=C(/C=C/c1ccccn1)NC12CC(NC(=O)COc3ccc(Cl)c(F)c3)(C1)C2 [Compound 349, (2E)-N-{3-[2-(4-chloro-3-fluorophenoxy)acetamido]bicyclo[1.1.1]pentan-1-yl}-3-(pyridin-2-yl)prop-2-enamide] | 5.70 to 6.30
4 | O=C(COc1ccc(Cl)c(F)c1)NC12CCC(NC(=O)Cc3ccc4c(c3)OCO4)(CC1)C(O)C2 (centres unmarked) [Compound 323, 2-(2H-1,3-benzodioxol-5-yl)-N-{4-[2-(4-chloro-3-fluorophenoxy)acetamido]-2-hydroxybicyclo[2.2.2]octan-1-yl}acetamide] | < 5.70
5 | N#Cc1ccc(OCC(=O)NC23CC(NC(=O)COc4ccc(Cl)c(F)c4)(C2)C3)cn1 [Compound 238, 2-(4-chloro-3-fluorophenoxy)-N-(3-{2-[(6-cyanopyridin-3-yl)oxy]acetamido}bicyclo[1.1.1]pentan-1-yl)acetamide] | 7.30 to 8.00
6 | Cc1cc(OCC(=O)NC23CC(NC(=O)COc4ccc(Cl)c(F)c4)(C2)C3)cnc1C#N [Compound 242, 2-(4-chloro-3-fluorophenoxy)-N-(3-{2-[(6-cyano-5-methylpyridin-3-yl)oxy]acetamido}bicyclo[1.1.1]pentan-1-yl)acetamide] | 7.30 to 8.00
7 | COc1cc(OCC(=O)NC23CCC(NC(=O)COc4ccc(Cl)c(F)c4)(CC2)[C@@H](O)C3)ncn1 [Compound 666, 2-(4-chloro-3-fluorophenoxy)-N-[(2S)-2-hydroxy-4-{2-[(6-methoxypyrimidin-4-yl)oxy]acetamido}bicyclo[2.2.2]octan-1-yl]acetamide] | 6.60 to 7.30
8 | O=C(COc1ccc(Cl)c(F)c1)NC12CC(NC(=O)Cc3ccccn3)(C1)C2 [Compound 448, 2-(4-chloro-3-fluorophenoxy)-N-{3-[2-(pyridin-2-yl)acetamido]bicyclo[1.1.1]pentan-1-yl}acetamide] | < 5.70
9 | O=C(CCOCc1cccc(Cl)c1)NC12CC(NC(=O)COc3ccc(Cl)c(F)c3)(C1)C2 [Compound 163, N-{3-[2-(4-chloro-3-fluorophenoxy)acetamido]bicyclo[1.1.1]pentan-1-yl}-3-[(3-chlorophenyl)methoxy]propanamide] | 6.30 to 6.60
10 | Cn1cc(OCC(=O)NC23CCC(NC(=O)COc4ccc(Cl)c(F)c4)(CC2)C[C@@H]3O)cn1 [Compound 658, 2-(4-chloro-3-fluorophenoxy)-N-[(3S)-3-hydroxy-4-{2-[(1-methyl-1H-pyrazol-4-yl)oxy]acetamido}bicyclo[2.2.2]octan-1-yl]acetamide] | 6.60 to 7.30
11 | O=C(COc1ccc(Cl)c(F)c1)NC12CCC(NC(=O)COc3ccc(Cl)c(F)c3)(CC1)[C@H](C(=O)O)C2 [Compound 559, (2R)-1,4-bis[2-(4-chloro-3-fluorophenoxy)acetamido]bicyclo[2.2.2]octane-2-carboxylic Acid] | 5.70 to 6.30
12 | Cc1cccc(OCC(=O)NC23CCC(NC(=O)COc4ccc(Cl)c(F)c4)(CC2)[C@@H](O)C3)c1 [Compound 467, 2-(4-chloro-3-fluorophenoxy)-N-{(2S)-2-hydroxy-4-[2-(3-methylphenoxy)acetamido]bicyclo[2.2.2]octan-1-yl}acetamide] | > 8.00
13 | O=C(COc1ccc(Cl)c(F)c1)NC12CC(NC(=O)COc3ccn4nccc4n3)(C1)C2 [Compound 182, 2-(4-chloro-3-fluorophenoxy)-N-(3-{2-[(pyrazolo[1,5-a]pyrimidin-5-yl)oxy]acetamido}bicyclo[1.1.1]pentan-1-yl)acetamide] | < 5.70
14 | O=C(COc1ccc(Cl)c(F)c1)NC12CCC(NC(=O)COc3ccc(F)c(C(F)(F)F)c3)(CC1)[C@@H](O)C2 [Compound 828, 2-(4-chloro-3-fluorophenoxy)-N-[(3S)-4-{2-[4-fluoro-3-(trifluoromethyl)phenoxy]acetamido}-3-hydroxybicyclo[2.2.2]octan-1-yl]acetamide] | > 8.00
15 | O=C(COc1ccc(Cl)c(Cl)c1)NC12CCC(NC(=O)COc3ccc(Cl)c(Cl)c3)(CC1)C(=O)N2 [Compound 600, N,N′-(3-oxo-2-azabicyclo[2.2.2]octane-1,4-diyl)bis[2-(3,4-dichlorophenoxy)acetamide]] | > 8.00
16 | O=C(COc1ccc(Cl)c(F)c1)NC12CCC(NC(=O)COc3noc4ccccc34)(CC1)[C@@H](O)C2 [Compound 515, 2-[(1,2-benzoxazol-3-yl)oxy]-N-{(2S)-4-[2-(4-chloro-3-fluorophenoxy)acetamido]-2-hydroxybicyclo[2.2.2]octan-1-yl}acetamide] | > 8.00

Row | SMILES | pEC50
17 | O=C(COc1ccc(F)c(C(F)(F)F)c1)NC12CCC(NC(=O)COc3ccc(C(F)(F)F)c(F)c3)(CC1)[C@@H](O)C2 [Compound 822, 2-[3-fluoro-4-(trifluoromethyl)phenoxy]-N-[(2S)-4-{2-[4-fluoro-3-(trifluoromethyl)phenoxy]acetamido}-2-hydroxybicyclo[2.2.2]octan-1-yl]acetamide] | > 8.00
18 | CN(C(=O)COc1ccc(Cl)c(F)c1)C12CCC(NC(=O)COc3ccc(Cl)c(F)c3)(CC1)C[C@@H]2O [Compound 375, 2-(4-chloro-3-fluorophenoxy)-N-{(2S)-4-[2-(4-chloro-3-fluorophenoxy)acetamido]-2-hydroxybicyclo[2.2.2]octan-1-yl}-N-methylacetamide] | 6.60 to 7.30
19 | O=C(COc1ccc(Cl)c(F)c1)NC12CC(NS(=O)(=O)CCOc3ccccc3F)(C1)C2 [Compound 485, 2-(4-chloro-3-fluorophenoxy)-N-(3-{[2-(2-fluorophenoxy)ethanesulfonyl]amino}bicyclo[1.1.1]pentan-1-yl)acetamide] | 5.70 to 6.30
20 | O=C(COc1ccc(Cl)c(F)c1)NC12CC(NC(=O)Cc3ccccc3)(C1)C2 [Compound 446, 2-(4-chloro-3-fluorophenoxy)-N-[3-(2-phenylacetamido)bicyclo[1.1.1]pentan-1-yl]acetamide] | < 5.70
21 | O=C(COc1ccc(Cl)c(F)c1)NC12CCC(NC(=O)COc3ccc(F)c(OC(F)(F)F)c3)(CC1)[C@@H](O)C2 [Compound 772, 2-(4-chloro-3-fluorophenoxy)-N-[(3S)-4-{2-[4-fluoro-3-(trifluoromethoxy)phenoxy]acetamido}-3-hydroxybicyclo[2.2.2]octan-1-yl]acetamide] | > 8.00
22 | O=C(COc1ccc(C(F)(F)F)c(F)c1)NC12CCC(NC(=O)COc3ccc(F)cc3)(CC1)[C@@H](O)C2 [Compound 844, 2-(4-fluorophenoxy)-N-[(2S)-4-{2-[3-fluoro-4-(trifluoromethyl)phenoxy]acetamido}-2-hydroxybicyclo[2.2.2]octan-1-yl]acetamide] | > 8.00
23 | O=C(COc1ccc(Cl)c(F)c1)NC12CC(NS(=O)(=O)Cc3ccccc3)(C1)C2 [Compound 479, 2-(4-chloro-3-fluorophenoxy)-N-{3-[(phenylmethanesulfonyl)amino]bicyclo[1.1.1]pentan-1-yl]acetamide] | < 5.70
24 | Cc1cc(OCC(=O)NC23CC(NC(=O)COc4ccc(Cl)c(F)c4)(C2)C3)cnc1F [Compound 244, 2-(4-chloro-3-fluorophenoxy)-N-(3-{2-[(6-fluoro-5-methylpyridin-3-yl)oxy]acetamido}bicyclo[1.1.1]pentan-1-yl)acetamide] | > 8.00
25 | O=C(COc1ccc(Cl)c(F)c1)NC12CCCC(NC(=O)COc3ccc(Cl)c(F)c3)(C1)C2 [Compound 179, N,N′-(bicyclo[3.1.1]heptane-1,5-diyl)bis[2-(4-chloro-3-fluorophenoxy)acetamide]] | < 5.70
26 | COc1ncc(OCC(=O)NC23CCC(NC(=O)COc4ccc(Cl)cc4)(CC2)[C@@H](O)C3)cn1 [Compound 635, 2-(4-chlorophenoxy)-N-[(2S)-2-hydroxy-4-{2-[(2-methoxypyrimidin-5-yl)oxy]acetamido}bicyclo[2.2.2]octan-1-yl]acetamide] | 7.30 to 8.00
27 | O=C(COc1ccc(C(F)(F)F)cc1)NC12CCC(NC(=O)COc3ccc(Cl)c(F)c3)(CC1)[C@@H](O)C2 [Compound 468, 2-(4-chloro-3-fluorophenoxy)-N-[(2S)-2-hydroxy-4-{2-[4-(trifluoromethyl)phenoxy]acetamido}bicyclo[2.2.2]octan-1-yl]acetamide] | > 8.00
28 | O=C(COc1cccc(OC(F)(F)F)c1)NC12CC(NC(=O)COc3ccc(Cl)c(F)c3)(C1)C2 [Compound 392, 2-(4-chloro-3-fluorophenoxy)-N-(3-{2-[3-(trifluoromethoxy)phenoxy]acetamido}bicyclo[1.1.1]pentan-1-yl)acetamide] | > 8.00
29 | COc1ncc(OCC(=O)NC23CCC(NC(=O)COc4ccc(Cl)c(F)c4)(CC2)C(=O)C3)cn1 [Compound 655, 2-(4-chloro-3-fluorophenoxy)-N-(4-{2-[(2-methoxypyrimidin-5-yl)oxy]acetamido}-2-oxobicyclo[2.2.2]octan-1-yl)acetamide] | 7.30 to 8.00
30 | COc1cc(Cl)ccc1OCC(=O)NC12CCC(NC(=O)COc3ccc(Cl)c(F)c3)(CC1)[C@@H](O)C2 [Compound 793, 2-(4-chloro-3-fluorophenoxy)-N-{(2S)-4-[2-(4-chloro-2-methoxyphenoxy)acetamido]-2-hydroxybicyclo[2.2.2]octan-1-yl}acetamide] | > 8.00
31 | Cc1cccc(OCC(=O)NC23CC(NC(=O)COc4ccc(Cl)cc4)(C2)C3)c1 [Compound 114, 2-(4-chlorophenoxy)-N-{3-[2-(3-methylphenoxy)acetamido]bicyclo[1.1.1]-pentan-1-yl}acetamide] | 7.30 to 8.00
32 | O=C(O)CN(CC(=O)NC12CC(NC(=O)COc3ccc(Cl)c(F)c3)(C1)C2)c1ccc(Cl)cc1 [Compound 684, {[2-({3-[2-(4-chloro-3-fluorophenoxy)acetamido]bicyclo[1.1.1]pentan-1-yl}amino)-2-oxoethyl](4-chlorophenyl)amino}acetic Acid] | < 5.70
